According to ChEMBL document CHEMBL2086317, “Synthesis and Agonistic Activity at the GPR35 of 5,6-Dihydroxyindole-2-carboxylic Acid Analogues” (ACS Med Chem Lett, 2012):
Activity calls are given as the source filed them. No cut-off for these calls is given here.

Legend:
Assay type in all cases: functional, cell-based
[1] = biological target: T1, G-protein coupled receptor 35 (Homo sapiens, UniProt Q9HC97); assay: Agonist activity at human GPR35 expressed in U2OS cells coexpressing Gal4-VP16/beta-arrestin fusion protein after 5 hrs by tango beta-arrestin translocation reporter gene assay
T1 sequence (Q9HC97 whole entry, the tested form may be a part): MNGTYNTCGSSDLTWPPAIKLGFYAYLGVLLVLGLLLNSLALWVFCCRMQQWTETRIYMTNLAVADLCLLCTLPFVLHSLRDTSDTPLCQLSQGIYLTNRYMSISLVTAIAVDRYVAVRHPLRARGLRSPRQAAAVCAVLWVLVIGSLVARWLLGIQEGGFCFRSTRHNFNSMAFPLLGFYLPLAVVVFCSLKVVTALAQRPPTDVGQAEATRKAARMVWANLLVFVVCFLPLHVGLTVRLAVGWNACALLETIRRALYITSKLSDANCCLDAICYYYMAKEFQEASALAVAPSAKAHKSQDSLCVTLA

[2] = biological target: T1, G-protein coupled receptor 35; assay: Agonist activity at human GPR35 expressed in U2OS cells coexpressing Gal4-VP16/beta-arrestin fusion protein after 5 hrs by tango beta-arrestin translocation reporter gene assay relative to zaprinast
[3] = biological target: T1, G-protein coupled receptor 35; assay: Agonist activity at GPR35 in human HT-29 cells measured after 10 mins by dynamic mass redistribution assay
[4] = biological target: T1, G-protein coupled receptor 35; assay: Agonist activity at GPR35 in human HT-29 cells at 32 uM measured after 10 mins by dynamic mass redistribution assay in presence of SPB05142
[5] = biological target: T1, G-protein coupled receptor 35; assay: Agonist activity at GPR35 in human HT-29 cells at 64 uM measured after 10 mins by dynamic mass redistribution assay in presence of SPB05142
[6] = biological target: T1, G-protein coupled receptor 35; assay: Agonist activity at human GPR35 expressed in U2OS cells coexpressing Gal4-VP16/beta-arrestin fusion protein at 100 uM after 5 hrs by tango beta-arrestin translocation reporter gene assay in presence of ML145
[7] = biological target: T1, G-protein coupled receptor 35; assay: Agonist activity at GPR35 in human HT-29 cells at 1 uM measured after 10 mins by dynamic mass redistribution assay in presence of SPB05142

Row | SMILES | EC50 ([1]; read-out: EC50) | Efficacy [2] | EC50 ([3]; read-out: EC50) | EC50 ([1]; u2os) | further results
1 | O=C(O)c1cccc(-c2c(C(=O)O)[nH]c3cc(O)c(O)cc23)c1 | 75.7 µM | 17% | 24.9 µM |  | 
2 | O=C(O)c1[nH]c2cc(O)c(O)cc2c1-c1cccnc1 |  |  | 84 µM | Not Active | 
3 | O=C(O)c1cc2cc(O)c(O)cc2s1 | 520 µM | 86% | 7.35 µM |  | Activity [4]: inactive
4 | O=C(O)c1[nH]c2cc(O)c(O)cc2c1Br | 166 µM | 48% | 4.1 µM |  | 
5 | O=C(O)c1cc2cc(O)c(O)cc2n1Cc1ccccc1 |  |  | 43.5 µM | Not Active | 
6 | O=C(O)c1[nH]c2cc(O)c(O)cc2c1-c1cc(F)cc(F)c1 | 109 µM | 48% | 4.36 µM |  | 
7 | O=C(O)c1ccc(-c2c(C(=O)O)[nH]c3cc(O)c(O)cc23)cc1 | 10.8 µM | 40% | 22.6 µM |  | 
8 | O=C(O)c1[nH]c2cc(O)c(O)cc2c1-c1ccsc1 | 61.2 µM | 18% | 10.3 µM |  | 
9 | O=C(Cn1c(C(=O)O)cc2cc(O)c(O)cc21)c1ccccc1 |  |  | 43.7 µM | Not Active | 
10 | O=C(O)Cn1c(C(=O)O)cc2cc(O)c(O)cc21 |  |  |  | Not Active | EC50 ([3]; ht-29): Not Active
11 | Cn1c(C(=O)O)cc2cc(O)c(O)cc21 | 45.4 µM | 85% | 64.2 µM |  | 
12 | Cc1c(C(=O)O)sc2cc(O)c(O)cc12 | 90.6 µM | 109% | 6.17 µM |  | Activity [4]: inactive
13 | Cc1c(C(=O)O)oc2cc(O)c(O)cc12 | 133 µM | 27% | 16.2 µM |  | Activity [5]: inactive
14 | O=C(O)c1[nH]c2cc(O)c(O)cc2c1-c1ccccc1 |  |  | 20.2 µM | Not Active | 
15 | CCn1c(C(=O)O)cc2cc(O)c(O)cc21 | 45.7 µM | 52% | 77.1 µM |  | 
16 | O=C(O)c1[nH]c2cc(O)c(O)cc2c1-c1cc(Cl)cc(Cl)c1 | 24.2 µM | 25% | 1.06 µM |  | 
17 | Cc1ccc(C(=O)Cn2c(C(=O)O)cc3cc(O)c(O)cc32)cc1 |  |  | 39.7 µM | Not Active | 
18 | O=C(O)c1[nH]c2cc(O)c(O)cc2c1-c1cccc(Cl)c1 | 34.4 µM | 19% | 2.48 µM |  | 
19 | O=C(O)c1cc2cc(O)c(O)cc2[nH]1 | 23.2 µM | 75% | 23.6 µM |  | 
20 | O=C(O)c1[nH]c2cc(O)c(O)cc2c1-c1ccc(Cl)cc1 | 387 µM | 89% | 2.54 µM |  | 
21 | Cc1ccc(Cn2c(C(=O)O)cc3cc(O)c(O)cc32)cc1 | > 500 µM | > 25% | 17.3 µM |  | 
22 | O=C(O)c1[nH]c2cc(O)c(O)cc2c1-c1ccc(C(F)(F)F)cc1 |  |  | 12.9 µM | Not Active | 
23 | Cc1c(C(=O)O)sc2cc(Br)c(O)c(Br)c12 | 46.5 µM | 94% | 0.16 µM |  | Activity [6]: inactive; Activity [7]: inactive
